# In the supplement of paper PMC10307832:
# Compound: c1ccc2c(CCNc3ccc(Nc4ccncc4)cc3)c[nH]c2c1 [Serdemetan] + Cc1nc(Nc2ncc(C(=O)Nc3c(C)cccc3Cl)s2)cc(N2CCN(CCO)CC2)n1 [Dasatinib] (partner 0.075 µM)
# Test: relative viability (nuclei count vs DMSO), 5 days (fraction); higher = more cells survive
# Conditions: first compound 0.04 µM
# Summary of the method: (§1)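 Dosing by pin tool came one day after lung cancer cell lines were seeded in 1536-well plates, using either one drug or a fixed anchor-drug dose plus five library-drug doses (not always all listed) in √10 steps. After 5 days, nuclei were counted on 4× images. Relative viability is treated-well nuclei count divided by vehicle-well nuclei count, and values are medians of duplicate plates.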
row,Cell Line,relative viability
1,COR-L23,0.46
2,COR-L 105,0.326
3,LOU-NH91,0.564
4,ChaGo-K-1,0.587
5,NCI-H2405,0.173
6,HOP-62,0.561
7,LU99A,0.545
8,BEN,0.302
9,HARA,0.336
10,HCC-78,0.408
11,NCI-H322M,0.266
12,LCLC-97TM1,0.824
13,NCI-H2009,0.315
14,A-427,0.666
15,NCI-H441,0.69
16,NCI-H661,0.856
17,NCI-H1734,0.384

row,Cell Line,relative viability
1,NCI-H460,0.616
2,NCI-H2347,0.336
3,SK-LU-1,0.212
4,201T,0.568
5,NCI-H1915,0.3
6,HCC-827,0.372
7,LXF-289,0.231
8,NCI-H23,0.734
9,NCI-H647,0.217
10,CAL-12T,0.392
11,NCI-H1651,0.296
12,EPLC-272H,0.42
13,NCI-H2228,0.44
14,NCI-H1355,0.78
15,NCI-H3122,0.827
16,NCI-H1437,0.347

# Same assay, conditions: first compound 0.1265 µM
row,Cell Line,relative viability
1,H3255,0.384
2,COR-L23,0.468
3,COR-L 105,0.351
4,LOU-NH91,0.554
5,ChaGo-K-1,0.562
6,NCI-H2405,0.217
7,HOP-62,0.625
8,LU99A,0.515
9,BEN,0.3
10,HARA,0.28
11,HCC-78,0.316
12,NCI-H322M,0.24
13,LCLC-97TM1,0.971
14,NCI-H2009,0.326
15,A-427,0.653
16,NCI-H441,0.649
17,NCI-H661,0.916

row,Cell Line,relative viability
1,NCI-H1734,0.371
2,NCI-H460,0.545
3,NCI-H2347,0.305
4,SK-LU-1,0.183
5,201T,0.508
6,NCI-H1915,0.316
7,HCC-827,0.231
8,LXF-289,0.197
9,NCI-H23,0.877
10,NCI-H647,0.153
11,CAL-12T,0.516
12,NCI-H1651,0.319
13,EPLC-272H,0.397
14,NCI-H2228,0.473
15,NCI-H1355,0.759
16,NCI-H3122,0.792
17,NCI-H1437,0.352

# Same assay, conditions: first compound 0.4 µM
row,Cell Line,relative viability
1,H3255,0.258
2,COR-L23,0.41
3,COR-L 105,0.306
4,LOU-NH91,0.371
5,ChaGo-K-1,0.572
6,NCI-H2405,0.21
7,HOP-62,0.636
8,LU99A,0.592
9,BEN,0.312
10,HARA,0.235
11,HCC-78,0.331
12,NCI-H322M,0.248
13,LCLC-97TM1,0.823
14,NCI-H2009,0.31
15,A-427,0.655
16,NCI-H441,0.516
17,NCI-H661,0.849

row,Cell Line,relative viability
1,NCI-H1734,0.402
2,NCI-H460,0.47
3,NCI-H2347,0.286
4,SK-LU-1,0.183
5,201T,0.546
6,NCI-H1915,0.314
7,LXF-289,0.199
8,NCI-H23,0.794
9,NCI-H647,0.156
10,CAL-12T,0.429
11,NCI-H1651,0.281
12,EPLC-272H,0.389
13,NCI-H2228,0.485
14,NCI-H1355,0.601
15,NCI-H3122,0.919
16,NCI-H1437,0.388

# Same assay, conditions: first compound 1.265 µM
row,Cell Line,relative viability
1,H3255,0.323
2,COR-L23,0.379
3,COR-L 105,0.319
4,LOU-NH91,0.43
5,ChaGo-K-1,0.249
6,NCI-H2405,0.209
7,HOP-62,0.538
8,LU99A,0.217
9,HARA,0.185
10,HCC-78,0.307
11,NCI-H322M,0.214
12,NCI-H2009,0.25
13,A-427,0.64
14,NCI-H441,0.585
15,NCI-H1734,0.117
16,NCI-H460,0.258
17,NCI-H2347,0.303
18,201T,0.449
19,NCI-H1915,0.287
20,HCC-827,0.229
21,LXF-289,0.202
22,NCI-H23,0.548
23,NCI-H647,0.184
24,CAL-12T,0.456
25,NCI-H1651,0.237
26,EPLC-272H,0.29
27,NCI-H2228,0.188
28,NCI-H1355,0.602
29,NCI-H1437,0.274

# Same assay, conditions: first compound 4 µM
row,Cell Line,relative viability
1,H3255,0.431
2,COR-L23,0.452
3,COR-L 105,0.337
4,LOU-NH91,0.565
5,ChaGo-K-1,0.24
6,NCI-H2405,0.133
7,HOP-62,0.567
8,LU99A,0.232
9,BEN,0.356
10,HARA,0.178
11,HCC-78,0.299
12,NCI-H322M,0.272
13,LCLC-97TM1,0.748
14,NCI-H2009,0.221
15,A-427,0.603
16,NCI-H441,0.435
17,NCI-H661,0.564

row,Cell Line,relative viability
1,NCI-H1734,0.131
2,NCI-H460,0.141
3,NCI-H2347,0.237
4,SK-LU-1,0.179
5,201T,0.464
6,NCI-H1915,0.302
7,HCC-827,0.138
8,LXF-289,0.185
9,NCI-H23,0.914
10,NCI-H647,0.167
11,CAL-12T,0.292
12,NCI-H1651,0.186
13,EPLC-272H,0.418
14,NCI-H2228,0.184
15,NCI-H1355,0.76
16,NCI-H3122,0.782
17,NCI-H1437,0.289

# Compound: c1ccc2c(CCNc3ccc(Nc4ccncc4)cc3)c[nH]c2c1 [Serdemetan] + O=C(CCCCCCC(=O)Nc1ccccc1)NO [Vorinostat] (partner 1 µM)
# Test: as above
# Conditions: first compound 0.04 µM
# Summary of the method: as §1
row,Cell Line,relative viability
1,H3255,0.701
2,COR-L23,0.441
3,COR-L 105,0.863
4,LOU-NH91,0.954
5,ChaGo-K-1,0.741
6,NCI-H2405,0.968
7,HOP-62,0.702
8,LU99A,0.535
9,BEN,0.603
10,HARA,0.527
11,HCC-78,0.464
12,NCI-H322M,0.798
13,LCLC-97TM1,0.803
14,NCI-H2009,0.583
15,A-427,0.854
16,NCI-H441,0.795
17,NCI-H661,0.77

row,Cell Line,relative viability
1,NCI-H1734,0.65
2,NCI-H460,0.595
3,NCI-H2347,0.648
4,SK-LU-1,0.746
5,201T,0.974
6,NCI-H1915,0.538
7,HCC-827,0.827
8,LXF-289,0.754
9,NCI-H23,0.664
10,NCI-H647,0.517
11,CAL-12T,0.857
12,NCI-H1651,0.573
13,EPLC-272H,0.396
14,NCI-H2228,0.588
15,NCI-H1355,0.654
16,NCI-H3122,1.05
17,NCI-H1437,0.771

# Same assay, conditions: first compound 0.1265 µM
row,Cell Line,relative viability
1,H3255,0.797
2,COR-L23,0.434
3,COR-L 105,0.96
4,LOU-NH91,0.954
5,ChaGo-K-1,0.697
6,NCI-H2405,0.973
7,HOP-62,0.713
8,LU99A,0.459
9,BEN,0.54
10,HARA,0.565
11,HCC-78,0.432
12,NCI-H322M,0.906
13,LCLC-97TM1,0.713
14,NCI-H2009,0.695
15,A-427,0.849
16,NCI-H441,0.71
17,NCI-H661,0.793

row,Cell Line,relative viability
1,NCI-H1734,0.366
2,NCI-H460,0.435
3,NCI-H2347,0.53
4,SK-LU-1,0.821
5,201T,0.996
6,NCI-H1915,0.535
7,HCC-827,0.466
8,LXF-289,0.77
9,NCI-H23,0.695
10,NCI-H647,0.693
11,CAL-12T,0.82
12,NCI-H1651,0.386
13,EPLC-272H,0.654
14,NCI-H2228,0.542
15,NCI-H1355,0.688
16,NCI-H3122,0.969
17,NCI-H1437,0.786

# Same assay, conditions: first compound 0.4 µM
row,Cell Line,relative viability
1,COR-L23,0.392
2,COR-L 105,0.758
3,ChaGo-K-1,0.77
4,NCI-H2405,0.91
5,HOP-62,0.881
6,LU99A,0.379
7,BEN,0.688
8,HARA,0.492
9,HCC-78,0.483
10,NCI-H322M,0.857
11,LCLC-97TM1,0.667
12,NCI-H2009,0.805
13,A-427,0.867
14,NCI-H441,0.765
15,NCI-H661,0.738
16,NCI-H1734,0.331

row,Cell Line,relative viability
1,NCI-H460,0.296
2,NCI-H2347,0.703
3,SK-LU-1,0.746
4,201T,0.883
5,NCI-H1915,0.513
6,LXF-289,0.718
7,NCI-H23,0.643
8,NCI-H647,0.645
9,CAL-12T,0.748
10,NCI-H1651,0.509
11,EPLC-272H,0.532
12,NCI-H2228,0.573
13,NCI-H1355,0.632
14,NCI-H3122,0.928
15,NCI-H1437,0.79

# Same assay, conditions: first compound 1.265 µM
row,Cell Line,relative viability
1,H3255,0.487
2,COR-L23,0.412
3,COR-L 105,0.861
4,ChaGo-K-1,0.329
5,NCI-H2405,0.788
6,HOP-62,0.36
7,LU99A,0.211
8,BEN,0.615
9,HARA,0.483
10,HCC-78,0.388
11,NCI-H322M,0.806
12,LCLC-97TM1,0.433
13,NCI-H2009,0.638
14,A-427,0.779
15,NCI-H441,0.479
16,NCI-H661,0.712

row,Cell Line,relative viability
1,NCI-H1734,0.149
2,NCI-H460,0.0775
3,NCI-H2347,0.334
4,SK-LU-1,0.598
5,201T,0.879
6,NCI-H1915,0.508
7,HCC-827,0.597
8,LXF-289,0.656
9,NCI-H647,0.516
10,CAL-12T,0.922
11,NCI-H1651,0.492
12,EPLC-272H,0.304
13,NCI-H2228,0.244
14,NCI-H1355,0.617
15,NCI-H3122,0.587
16,NCI-H1437,0.623

# Same assay, conditions: first compound 4 µM
row,Cell Line,relative viability
1,H3255,0.73
2,COR-L23,0.362
3,COR-L 105,0.645
4,LOU-NH91,0.935
5,ChaGo-K-1,0.331
6,NCI-H2405,0.846
7,HOP-62,0.406
8,LU99A,0.249
9,BEN,0.514
10,HARA,0.274
11,HCC-78,0.339
12,NCI-H322M,0.854
13,LCLC-97TM1,0.398
14,NCI-H2009,0.558
15,A-427,0.709
16,NCI-H441,0.436
17,NCI-H661,0.752

row,Cell Line,relative viability
1,NCI-H1734,0.128
2,NCI-H460,0.0723
3,NCI-H2347,0.414
4,SK-LU-1,0.451
5,201T,0.715
6,NCI-H1915,0.509
7,HCC-827,0.449
8,LXF-289,0.646
9,NCI-H23,0.517
10,NCI-H647,0.483
11,CAL-12T,0.627
12,NCI-H1651,0.336
13,EPLC-272H,0.218
14,NCI-H2228,0.219
15,NCI-H1355,0.541
16,NCI-H3122,0.877
17,NCI-H1437,0.616
